The values that follow come from patent publication US11970494B2, “6-heteroaryloxy benzimidazoles and azabenzimidazoles as JAK2 inhibitors” (Ajax Therapeutics, Inc., priority 2021, dated 2024).

A value given as a limit tells only on which side of the number the result lay.

The nature of series [1]: Caco2 Permeability Assay. Type of series: in vitro ADME. The note with it: human. On the procedure:
Preparation of Caco-2 Cells: 50 μL and 25 mL of cell culture medium are added to each well of a Transwell® insert and reservoir, respectively. Then, the HTS Transwell® plates are incubated at 37° C., 5% CO2 for 1 hour before cell seeding. Caco-2 cell cells are diluted to 6.86×10^5 cells/mL with culture medium, and 50 μL of cell suspension are dispensed into the filter well of the 96-well HTS Transwell® plate. Cells are cultivated for 14-18 days in a cell culture incubator at 37° C., 5% CO2, 95% relative humidity. Cell culture medium is replaced every other day, beginning no later than 24 hours after initial plating.
Preparation of Stock Solutions: 10 mM stock solutions of test compounds are prepared in DMSO. The stock solutions of positive controls are prepared in DMSO at the concentration of 10 mM. Digoxin and propranolol are used as control compounds in this assay.
Assessment of Cell Monolayer Integrity: Medium is removed from the reservoir and each Transwell® insert and is replaced with prewarmed fresh culture medium. Transepithelial electrical resistance (TEER) across the monolayer is measured using Millicell Epithelial Volt-Ohm measuring system (Millipore, USA). The Plate is returned to the incubator once the measurement is done. The TEER value is calculated according to the following equation: TEER measurement (ohms)×Area of membrane (cm^2)=TEER value (ohm⋅cm^2). A TEER value greater than 230 ohm⋅cm^2 indicates a well-qualified Caco-2 monolayer.
Assay Procedure: The Caco-2 plate is removed from the incubator and washed twice with pre-warmed HBSS (10 mM HEPES, pH 7.4), and then incubated at 37° C. for 30 minutes. The stock solutions of control compounds are diluted in DMSO to get 1 mM solutions and then diluted with HBSS (10 mM HEPES, pH 7.4) to get 5 μM working solutions. The stock solutions of the test compounds are diluted in DMSO to get 1 mM solutions and then diluted with HBSS (10 mM HEPES and 4% BSA, pH 7.4) to get 5 μM working solutions. The final concentration of DMSO in the incubation system is 0.5%. To determine the rate of drug transport in the apical to basolateral direction. 75 μL of 5 μM working solutions of test compounds are added to the Transwell® insert (apical compartment) and the wells in the receiver plate (basolateral compartment) are filled with 235 μL of HBSS (10 mM HEPES and 4% BSA, pH 7.4). To determine the rate of drug transport in the basolateral to apical direction, 235 μL of 5 μM working solutions of test compounds are added to the receiver plate wells (basolateral compartment) and then the Transwell® inserts (apical compartment) are filled with 75 μL of HBSS (10 mM HEPES and 4% BSA, pH 7.4). Time 0 samples are prepared by transferring 50 μL of 5 μM working solution to wells of the 96-deepwell plate, followed by the addition of 200 μL cold methanol containing appropriate internal standards (IS). The plates are incubated at 37° C. for 2 hours. At the end of the incubation, 50 μL samples from donor sides (apical compartment for Ap→*Bl flux, and basolateral compartment for Bl→Ap) and receiver sides (basolateral compartment for Ap→Bl flux, and apical compartment for Bl→Ap) are transferred to wells of a new 96-well plate, followed by the addition of 4 volume of cold acetonitrile or methanol containing appropriate internal standards (IS). Samples are vortexed for 5 minutes and then centrifuged at 3,220 g for 40 minutes. An aliquot of 100 μL of the supernatant is mixed with an appropriate volume of ultra-pure water before LC-MS/MS analysis. To determine the Lucifer Yellow leakage after 2 hour transport period, stock solution of Lucifer yellow is prepared in ultra-pure water and diluted with HBSS (10 mM HEPES, pH 7.4) to reach the final concentration of 100 μM. 100 μL of the Lucifer yellow solution is added to each Transwell® insert (apical compartment), followed by filling the wells in the receiver plate (basolateral compartment) with 300 μL of HBSS (10 mM HEPES, pH 7.4). […]
In general terms: Passage across Caco-2 layers is used to estimate intestinal permeability.

The target of series [2] is T1, JAK2 (JH1 domain-catalytic, Y1007F,Y1008F) kinase (Homo sapiens, UniProt O60674, Y1007F/Y1008F).
T1 construct: made in house; host or cells: transiently transfected HEK293 cells
The series can be described thus: JAK2 Binding Assay (JAK2 JH1 Domain Binding Assay). The note with it: JAK2 JH1 domain binding, qPCR detection; read-out: JAK2 Kd. In general terms: In qPCR the cycle at which signal appears reflects the starting amount.

T1 sequence (O60674 849-1124 Y1007F/Y1008F limits assumed): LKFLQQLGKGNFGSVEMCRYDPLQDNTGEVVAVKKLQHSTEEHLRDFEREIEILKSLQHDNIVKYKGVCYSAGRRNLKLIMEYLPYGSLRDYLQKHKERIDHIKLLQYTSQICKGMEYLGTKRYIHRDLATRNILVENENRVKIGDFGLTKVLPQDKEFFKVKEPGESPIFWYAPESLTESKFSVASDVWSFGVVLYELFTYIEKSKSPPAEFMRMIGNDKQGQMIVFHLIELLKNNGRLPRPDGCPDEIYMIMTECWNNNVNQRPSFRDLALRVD

With `Cn1c(Nc2cc3n(n2)CCCC3(F)F)nc2ncc(Oc3ccnc(NC(=O)N4CCC4)c3)c(C#N)c21` [Example I-30], the efflux ratio at 2 h, 5 μM in series [1] (pH 7.4, Caco-2, 5 μM, read-out: Efflux Ratio (ER)) was 2 to 5. For the same compound, in series [1] (pH 7.4, Caco-2, apical to basolateral, 5 μM), the Papp A→B at 2 h, 5 μM was 3 ×10⁻⁶ cm/s.

Regarding `CC(=O)Nc1cc(Oc2cnc3nc(Nc4cc5n(n4)CCN5C(C)(C)C)n(C)c3c2C#N)ccn1` [Example I-115, N-(4-((2-((1-(tert-butyl)-2,3-dihydro-1H-imidazo[1,2-b]pyrazol-6-yl)amino)-7-cyano-1-methyl-1H-imidazo[4,5-b]pyridin-6-yl)oxy)pyridin-2-yl)acetamide], the Kd in series [2] was < 10 nM.

For `CC(=O)Nc1cc(Oc2cnc3nc(Nc4cc5n(n4)CCN(C)C54CC4)n(C)c3c2C#N)ccn1` [Example I-119], in series [2], the equilibrium dissociation constant (Kd) is 10 to 50 nM.

As to `Cn1c(Nc2cc3n(n2)CCC32CCC2)nc2ncc(Oc3ccnc(NC(=O)O[C@H]4CCOC4)c3)c(C#N)c21` [Example I-120, (S)-tetrahydrofuran-3-yl(4-((7-cyano-2-((5′,6′-dihydrospiro[cyclobutane-1,4′-pyrrolo[1,2-b]pyrazol]-2′-yl)amino)-1-methyl-1H-imidazo[4,5-b]pyridin-6-yl)oxy)pyridin-2-yl)carbamate], the Kd in series [2] was < 10 nM.

With `Cn1c(Nc2cc3n(n2)CCC32CCC2)nc2ncc(Oc3ccnc(NC(=O)O[C@@H]4CCOC4)c3)c(C#N)c21` [Example I-121, (R)-tetrahydrofuran-3-yl (4-((7-cyano-2-((5′,6′-dihydrospiro[cyclobutane-1,4′-pyrrolo[1,2-b]pyrazol]-2′-yl)amino)-1-methyl-1H-imidazo[4,5-b]pyridin-6-yl)oxy)pyridin-2-yl)carbamate], the dissociation constant Kd in series [2] was < 10 nM.

`Cn1cc(C(F)(F)F)cc(Nc2nc3ncc(Oc4ccnc(NC(=O)NC5COC5)c4)c(C#N)c3n2C)c1=O` [Example I-123, 1-(4-((7-cyano-1-methyl-2-((1-methyl-2-oxo-5-(trifluoromethyl)-1,2-dihydropyridin-3-yl)amino)-1H-imidazo[4,5-b]pyridin-6-yl)oxy)pyridin-2-yl)-3-(oxetan-3-yl)urea]: the Kd in series [2] was < 10 nM.

As a reminder, the Papp A→B is the apparent permeability from the apical to the basolateral side of a cell layer. By Kd is commonly meant a measure of binding affinity in units of concentration.
